Test results from ChEMBL document CHEMBL5214920, “Emerging impact of triazoles as anti-tubercular agent” (Eur J Med Chem, 2022).
Converted amounts (≈) assume the structure as drawn.

Assays:
[1] = test system: Mycobacterium tuberculosis; test: Antitubercular activity against Mycobacterium tuberculosis H37Rv assessed as bacterial growth inhibition measured after 7 days by REMA method; type: functional; conditions: 168 h, time 7 day
[2] = test system: Mycobacterium tuberculosis; test: Antitubercular activity against Mycobacterium tuberculosis H37Rv assessed as bacterial growth inhibition measured after 7 days by direct susceptibility assay; type: functional; conditions: 168 h, time 7 day
[3] = test system: Mycobacterium tuberculosis; test: Antitubercular activity against Mycobacterium tuberculosis H37Rv assessed as bacterial growth inhibition by micro broth dilution assay; type: functional
[4] = test system: Mycobacterium tuberculosis; test: Antitubercular activity against Mycobacterium tuberculosis H37Rv ATCC 27294 assessed as bacterial growth inhibition; type: functional
[5] = test system: Mycobacterium tuberculosis; test: Antitubercular activity against Mycobacterium tuberculosis H37Rv assessed as bacterial growth inhibition; type: functional
[6] = test system: Mycobacterium tuberculosis; test: Antitubercular activity against Mycobacterium tuberculosis mc 2 6230 assessed as bacterial growth inhibition; type: functional
[7] = test system: Mycobacterium tuberculosis; test: Antitubercular activity against Mycobacterium tuberculosis H37Rv assessed as bacterial growth inhibition at 6.25 ug/ml measured after 5 to 8 days by radiometric analysis relative to control; type: functional; parameters: scale not given: the % may be the effect or the level left; conditions: dose 6.25 µg/ml; time 5-8 day
[8] = test system: Mycobacterium tuberculosis; test: Antitubercular activity against Mycobacterium tuberculosis H37Rv assessed as bacterial growth inhibition measured after 7 days by MABA method; type: functional; conditions: 168 h, time 7 day
DNA gyrase subunit B = DNA gyrase subunit B (Mycobacterium smegmatis, UniProt P0C559); test: Inhibition of Mycobacterium smegmatis GyrB incubated for 120 mins in presence of ATP by malachite green r staining based assay; parameters: species or system Mycolicibacterium smegmatis
[9] = target: DNA gyrase subunit A/DNA gyrase subunit B (Mycobacterium tuberculosis (strain ATCC 25618 / H37Rv), UniProt P9WG45+P9WG47); test: Inhibition of Mycobacterium tuberculosis DNA gyrase supercoiling activity; type: protein-complex assay
[10] = test system: Mycobacterium tuberculosis; test: Antitubercular activity against Mycobacterium tuberculosis H37Rv ATCC 27294 assessed as bacterial growth inhibition by agar dilution method; type: functional
[11] = test system: Mycobacterium tuberculosis; test: Antitubercular activity against Mycobacterium tuberculosis H37Rv ATCC 27294 assessed as bacterial growth inhibition measured after 10 days by MABA method; type: functional; conditions: H37Rv ATCC 27294, 240 h, time 10 day
[12] = test system: Mycobacterium tuberculosis; test: Antitubercular activity against Mycobacterium tuberculosis mc 2 7000 assessed as bacterial growth inhibition; type: functional
[13] = test system: Mycobacterium tuberculosis; test: Antitubercular activity against Mycobacterium tuberculosis H37Rv assessed as reduction in relative light units at 5 ug/ml incubated for 4 hrs followed by addition of D-luciferin by luciferase based luminometer analysis relative to control; type: functional; parameters: scale not given: the % may be the effect or the level left; conditions: dose 5 µg/ml
[14] = test system: Mycobacterium tuberculosis; test: Antitubercular activity against Mycobacterium tuberculosis H37Rv assessed as reduction in relative light units at 25 ug/ml incubated for 4 hrs followed by addition of D-luciferin by luciferase based luminometer analysis relative to control; type: functional; parameters: scale not given: the % may be the effect or the level left; conditions: dose 25 µg/ml
[15] = test system: Mycobacterium tuberculosis; test: Antitubercular activity against Mycobacterium tuberculosis H37Rv ATCC 27294 assessed as bacterial growth inhibition measured after 5 days by MABA method; type: functional; conditions: H37Rv ATCC 27294, 120 h, time 5 day
[16] = test system: Mycobacterium tuberculosis; test: Antitubercular activity against Mycobacterium tuberculosis H37Rv assessed as bacterial growth inhibition measured after 5 days by MABA method; type: functional; conditions: 120 h, time 5 day
[17] = test system: Mycobacterium tuberculosis; test: Antitubercular activity against Mycobacterium tuberculosis H37Rv assessed as bacterial growth inhibition measured after 7 days by broth microdilution assay; type: functional; conditions: 168 h, time 7 day
[18] = test system: Mycobacterium tuberculosis; test: Antitubercular activity against Mycobacterium tuberculosis H37Rv ATCC 27294 assessed as bacterial growth inhibition measured after 7 days by MABA method; type: functional; conditions: H37Rv ATCC 27294, 168 h, time 7 day
[19] = test system: Mycobacterium tuberculosis; test: Antitubercular activity against dormant stage of Mycobacterium tuberculosis H37Ra ATCC 25177 assessed as bacterial growth inhibition by XTT assay; type: functional
[20] = test system: Mycobacterium tuberculosis; test: Antitubercular activity against active stage of Mycobacterium tuberculosis H37Ra ATCC 25177 assessed as bacterial growth inhibition by XTT assay; type: functional
[21] = test system: Mycobacterium tuberculosis; test: Antitubercular activity against Mycobacterium tuberculosis H37Rv assessed as bacterial growth inhibition measured after 24 hrs by agar micro dilution method; type: functional
[22] = test system: Mycobacterium tuberculosis; test: Antitubercular activity against Mycobacterium tuberculosis H37Rv ATCC 27294 assessed as bacterial growth inhibition measured after 48 hrs by broth dilution method; type: functional

Structure (SMILES): Cc1cc(=O)oc2cc(OCc3cn(CCCCCCCCCCn4cc(COc5cc6oc(=O)cc(C)c6cc5Cl)nn4)nn3)c(Cl)cc12
- MIC [1]: 1.56 µg/mL (≈ 2.16 µM)

Structure (SMILES): O=C1C(=O)N(Cc2cn(Cc3ccc([N+](=O)[O-])c([N+](=O)[O-])c3)nn2)c2ccccc21
- MIC [2]: 7.56 µg/mL (≈ 18.5 µM)

Structure (SMILES): Brc1ccc(/C=C/c2nnc3c4ccccc4cnn23)cc1
- MIC [3]: 0.5 µg/mL

Structure (SMILES): CCCCCc1ccc(-c2cn(-c3c(C(=O)OCC)c(=O)n(C)c4ccccc34)nn2)cc1
- MIC [4]: 3.13 µg/mL (≈ 7.04 µM)

Structure (SMILES): O=C1Nc2ccccc2/C1=N\OCc1cn(Cc2ccc(C(F)(F)F)cc2)nn1
- MIC [5]: 1.56 µg/mL (≈ 3.89 µM)

Structure (SMILES): C#Cc1nnc2c3ccccc3cnn12
- MIC [3]: 0.5 µg/mL

Structure (SMILES): COc1ccc2c(c1)/C(=N/NC(=O)c1ccncc1)C(=O)N2Cc1cn(-c2ccccc2/C=N\NC(=O)c2ccncc2)nn1
- MIC99 [6]: 0.36 µg/mL (≈ 0.599 µM)

Structure (SMILES): Cc1nc2ccccc2n2c(-c3cccc([N+](=O)[O-])c3)nnc12
- Activity [7]: 2%

Structure (SMILES): CO/N=C1/C(=O)C(CCOCCOCCOCCn2cc(CN3C(=O)/C(=N/OC)c4cc(F)ccc43)nn2)c2ccccc21 (centres undefined)
- MIC [2]: 128 µg/mL (≈ 210 µM)

Structure (SMILES): CCCCCCCCCNC(=O)Cc1nnc2c3ccccc3cnn12
- MIC [3]: 0.5 µg/mL

Structure (SMILES): COc1ccc2cc(-n3cc(COc4nc(-c5ccccn5)sc4C(N)=O)nn3)c(=O)oc2c1
- MIC [8]: 6.5 µM
- IC50 (DNA gyrase subunit B): 440 nM
- IC50 [9]: 500 nM

Structure (SMILES): CC1(C)OC2C3OC(C)(C)O[C@H]3C(Cn3cc(N4CCCC4=O)nn3)O[C@@H]2O1 (some centres undefined)
- MIC [10]: 3.12 µg/mL (≈ 7.92 µM)

Structure (SMILES): CC1=CN([C@H]2C[C@H](O)[C@@H](Cn3nnc(C(=O)c4ccc(Cl)cc4)c3-c3ccc(C(C)(C)C)cc3)O2)C(=O)CC1=O
- MIC [11]: 2 µg/mL (≈ 3.55 µM)

Structure (SMILES): CCOC(=O)c1c(-n2cc(-c3ccc(C)cc3)nn2)c2ccccc2n(C)c1=O
- MIC [4]: 3.13 µg/mL (≈ 8.06 µM)

Structure (SMILES): COc1ccc(-n2nc(C)cc2Cn2cncn2)cc1
- MIC [1]: 100 µg/mL (≈ 371 µM)

Structure (SMILES): O=C(N/N=C\c1ccccc1-n1cc(CN2C(=O)/C(=N\NC(=O)c3ccncc3)c3cc(Cl)ccc32)nn1)c1ccncc1
- MIC99 [6]: 0.36 µg/mL (≈ 0.595 µM)

Structure (SMILES): CC1=CN([C@H]2C[C@H](O)[C@@H](Cn3nnc(C(=O)c4ccc(Br)cc4)c3-c3ccc([N+](=O)[O-])cc3)O2)C(=O)CC1=O
- MIC [11]: 2 µg/mL (≈ 3.35 µM)

Structure (SMILES): CC1=CN([C@H]2C[C@H](O)[C@@H](Cn3nnc(C(=O)c4ccc(Cl)cc4)c3-c3ccc(F)cc3)O2)C(=O)CC1=O
- MIC [11]: 2 µg/mL (≈ 3.81 µM)

Structure (SMILES): O=C(OCc1cn(-c2ccccc2)nn1)c1c[n+]([O-])c2ccc(Cl)cc2[n+]1[O-]
- MIC [5]: 30.4 µg/mL (≈ 76.3 µM)
- MIC [6]: 30.4 µg/mL (≈ 76.3 µM)
- MIC [12]: 30.4 µg/mL

Structure (SMILES): CC1(C)OC2C3OC(C)(C)O[C@H]3C(Cn3cc(N4C(=O)CCC4=O)nn3)O[C@@H]2O1 (some centres undefined)
- MIC [10]: 3.12 µg/mL (≈ 7.65 µM)

Structure (SMILES): COc1cccc(-c2nnc3c(C)nc4ccccc4n23)c1
- Activity [7]: 2%

Structure (SMILES): Cc1nc2ccccc2n2c(-c3ccc(N(C)C)cc3)nnc12
- Activity [7]: 2%

Structure (SMILES): O=C1C(=O)N(Cc2cn(Cc3ccc(Br)cc3)nn2)c2ccccc21
- MIC [2]: 8.09 µg/mL (≈ 20.4 µM)

Structure (SMILES): CC(=O)OC[C@H]1O[C@@H](Oc2cn(Cc3ccc4ccccc4n3)nn2)[C@H](OC(C)=O)[C@@H](OC(C)=O)[C@H]1OC(C)=O
- Activity [13]: 76.41%
- Activity [14]: 78.37%

Structure (SMILES): Cc1nc2ccccc2n2c(-c3ccccc3)nnc12
- Activity [7]: 2%

Structure (SMILES): CC1=C(C(=O)O)N2C(=O)[C@@H](NC(=O)[C@H](N)c3ccccc3)[C@H]2SC1 [CEPHALEXIN ANHYDROUS]
- MIC [12]: 72 µM

Structure (SMILES): O=C(O)c1cn(C2CC2)c2cc(N3CCNCC3)c(F)cc2c1=O [CIPROFLOXACIN]
- MIC [15]: 3.12 µM
- MIC [2]: 3.12 µg/mL (≈ 9.42 µM)
- MIC [16]: 3.12 µg/mL (≈ 9.43 µM)

Structure (SMILES): CC[C@@H](CO)NCCN[C@@H](CC)CO [ETHAMBUTOL]
- MIC [8]: 1.56 µg/mL
- MIC [17]: 6.25 µM (≈ 1.28 µg/mL)
- MIC [15]: 7.63 µM
- MIC [18]: 7.64 µM (≈ 1.56 µg/mL)
- MIC [16]: 1.56 µg/mL (≈ 7.64 µM)
- MIC [3]: 1 µg/mL

Structure (SMILES): CCc1cc(C(N)=S)ccn1 [ETHIONAMIDE]
- MIC [12]: 90.4 µM

Structure (SMILES): NNC(=O)c1ccncc1 [ISONIAZID]
- MIC [15]: 0.7 µM
- MIC [19]: 0.043 µg/mL (≈ 0.314 µM)
- MIC [2]: 0.075 µg/mL (≈ 0.547 µM)
- MIC [20]: 0.074 µg/mL (≈ 0.54 µM)
- MIC [11]: > 300 µg/mL
- MIC [12]: 2.92 µM
- MIC [3]: 0.05 µg/mL

Structure (SMILES): CN[C@@H]1[C@H](O[C@H]2[C@H](O[C@H]3[C@H](O)[C@@H](O)[C@H](N=C(N)N)[C@@H](O)[C@@H]3N=C(N)N)O[C@@H](C)[C@]2(O)C=O)O[C@@H](CO)[C@H](O)[C@H]1O [STREPTOMYCIN]
- MIC [15]: 6.25 µg/mL
- MIC [21]: 3.12 µg/mL (≈ 5.37 µM)
- MIC [16]: > 6.25 µg/mL
- MIC [11]: 2 µg/mL (≈ 3.44 µM)

Structure (SMILES): Cc1ccc(-c2nc3ccc(C)cn3c2CC(=O)N(C)C)cc1 [ZOLPIDEM]
- MIC [15]: 3.12 µg/mL
- MIC [22]: 10 µM (≈ 3.07 µg/mL)
